From US6458748B1, “Di- or tri-fluoromethanesulfonyl anilide derivatives, process for the preparation of them and herbicides containing them as the active ingredient” (Ihara Chemical Industry Co., Ltd., priority 1998, dated 2002)

Assays:
[1] = test system: Echinochloa oryzicola vasing.; test: Test 1 paddy pot herbicidal effect, water surface application; type: in vivo; details: applied day after sowing, evaluated 28 days later
Description: (§1) Standard of herbicidal effect (level of suppression of development and growth) […] Herbicidal effect of 90% or more, injury to paddy rice […] Herbicidal effect of 70% or more to less than 90%, injury to paddy rice […] 2: […]

[2] = test system: Monochoria vaginalis (Burm. f.) Presl var. plantaginea (Roxb.) Solms-Laub.; test: as above; type: in vivo; details: applied day after sowing, evaluated 28 days later
Description: as §1

[3] = test system: Monochoria vaginalis (Burm. f.) Presl var. plantaginea (Roxb.) Solms-Laub.; test: Test 2 paddy pot herbicidal effect with water drainage and feeding; type: in vivo; details: water drainage and feeding 2 cm per day for two days, 28th day
Experimental: (§2) Further, a tuber of Sagittaria pygmaea Miq. was buried. […] For two days starting from the next day, water drainage and feeding each of 2 cm in depth per day were conducted.

Sagittaria pygmaea Miq. = test: as above; type: in vivo; details: water drainage and feeding 2 cm per day for two days, 28th day
Experimental: as §2

[4] = test system: Echinochloa oryzicola vasing.; test: Test 3 herbicidal effect, application before germination or at 3-leaf stage; details: 28th day from application

SMILES	Herbicidal effect Ec ([1]; 0.4 g/10 ares)	Herbicidal effect Ec ([1]; 1.6 g/10 ares)	Herbicidal effect Ec ([1]; 6.3 g/10 ares)	Herbicidal effect Ec ([1]; 25.0 g/10 ares)	Herbicidal effect Mo ([2]; 0.4 g/10 ares)	Herbicidal effect Mo ([2]; 1.6 g/10 ares)	Herbicidal effect Mo ([2]; 6.3 g/10 ares)	Herbicidal effect Mo ([2]; 25.0 g/10 ares)	Herbicidal effect (Ec) Application at 3-leaf stage ([4]; 0.3 g/10 ares)	Herbicidal effect (Ec) Application before germination ([4]; 0.3 g/10 ares)	Herbicidal effect (Ec) Application at 3-leaf stage ([4]; 0.6 g/10 ares)	Herbicidal effect (Ec) Application before germination ([4]; 0.6 g/10 ares)	Herbicidal effect (Ec) Application at 3-leaf stage ([4]; 1.3 g/10 ares)	Herbicidal effect (Ec) Application before germination ([4]; 1.3 g/10 ares)	Herbicidal effect (Ec) Application at 3-leaf stage ([4]; 2.5 g/10 ares)	Herbicidal effect (Ec) Application before germination ([4]; 2.5 g/10 ares)	Herbicidal effect (Ec) Application at 3-leaf stage ([4]; 5.0 g/10 ares)	Herbicidal effect (Ec) Application before germination ([4]; 5.0 g/10 ares)	also measured
COc1cc(OC)nc(C(O)c2ccccc2NS(=O)(=O)C(F)F)n1 (centres unmarked) [Example 1, 2-[(4,6-dimethoxypyrimidine-2-yl)hydroxymethyl]-N-difluoromethanesulfonyl anilide]	1 (Herbicidal effect of 10% or more to less than 30%, injury to paddy rice)	3 (Herbicidal effect of 50% or more to less than 70%, injury to paddy rice)	4 (Herbicidal effect of 70% or more to less than 90%, injury to paddy rice)	5 (Herbicidal effect of 90% or more, injury to paddy rice)	5 (Herbicidal effect of 90% or more, injury to paddy rice)	5 (Herbicidal effect of 90% or more, injury to paddy rice)	5 (Herbicidal effect of 90% or more, injury to paddy rice)	5 (Herbicidal effect of 90% or more, injury to paddy rice)	0 (Herbicidal effect of less than 10%, injury to paddy rice)	1 (Herbicidal effect of 10% or more to less than 30%, injury to paddy rice)	1 (Herbicidal effect of 10% or more to less than 30%, injury to paddy rice)	2 (Herbicidal effect of 30% or more to less than 50%, injury to paddy rice)	2 (Herbicidal effect of 30% or more to less than 50%, injury to paddy rice)	3 (Herbicidal effect of 50% or more to less than 70%, injury to paddy rice)	4 (Herbicidal effect of 70% or more to less than 90%, injury to paddy rice)	5 (Herbicidal effect of 90% or more, injury to paddy rice)	5 (Herbicidal effect of 90% or more, injury to paddy rice)	5 (Herbicidal effect of 90% or more, injury to paddy rice)	Herbicidal effect Ec ([3]; 0.6 g/10 ares): 2 (Herbicidal effect of 30% or more to less than 50%, injury to paddy rice); Herbicidal effect Ec ([3]; 1.3 g/10 ares): 4 (Herbicidal effect of 70% or more to less than 90%, injury to paddy rice); Herbicidal effect Ec ([3]; 2.5 g/10 ares): 5 (Herbicidal effect of 90% or more, injury to paddy rice); Herbicidal effect Ec ([3]; 5.0 g/10 ares): 5 (Herbicidal effect of 90% or more, injury to paddy rice); Herbicidal effect Sc (Sagittaria pygmaea Miq.; 0.6 g/10 ares): 2 (Herbicidal effect of 30% or more to less than 50%, injury to paddy rice); Herbicidal effect Sc (Sagittaria pygmaea Miq.; 1.3 g/10 ares): 5 (Herbicidal effect of 90% or more, injury to paddy rice); Herbicidal effect Sc (Sagittaria pygmaea Miq.; 2.5 g/10 ares): 5 (Herbicidal effect of 90% or more, injury to paddy rice); Herbicidal effect Sc (Sagittaria pygmaea Miq.; 5.0 g/10 ares): 5 (Herbicidal effect of 90% or more, injury to paddy rice)
CCc1cccc(C(O)c2nc(OC)cc(OC)n2)c1NS(=O)(=O)C(F)F (centres unmarked) [Example 3, 2-[(4,6-dimethoxypyrimidine-2-yl)hydroxymethyl]-6-ethyl-N-difluoromethanesulfonyl anilide]	4 (Herbicidal effect of 70% or more to less than 90%, injury to paddy rice)	5 (Herbicidal effect of 90% or more, injury to paddy rice)	5 (Herbicidal effect of 90% or more, injury to paddy rice)	5 (Herbicidal effect of 90% or more, injury to paddy rice)	5 (Herbicidal effect of 90% or more, injury to paddy rice)	5 (Herbicidal effect of 90% or more, injury to paddy rice)	5 (Herbicidal effect of 90% or more, injury to paddy rice)	5 (Herbicidal effect of 90% or more, injury to paddy rice)	2 (Herbicidal effect of 30% or more to less than 50%, injury to paddy rice)	4 (Herbicidal effect of 70% or more to less than 90%, injury to paddy rice)	4 (Herbicidal effect of 70% or more to less than 90%, injury to paddy rice)	5 (Herbicidal effect of 90% or more, injury to paddy rice)	5 (Herbicidal effect of 90% or more, injury to paddy rice)	5 (Herbicidal effect of 90% or more, injury to paddy rice)	5 (Herbicidal effect of 90% or more, injury to paddy rice)	5 (Herbicidal effect of 90% or more, injury to paddy rice)	5 (Herbicidal effect of 90% or more, injury to paddy rice)	5 (Herbicidal effect of 90% or more, injury to paddy rice)	–
COCc1cccc(C(O)c2nc(OC)cc(OC)n2)c1NS(=O)(=O)C(F)F (centres unmarked) [Example 2, 2-[(4,6-dimethoxypyrimidine-2-yl)hydroxymethyl]-6-methoxymethyl-N-difluoromethanesulfonyl anilide]	4 (Herbicidal effect of 70% or more to less than 90%, injury to paddy rice)	5 (Herbicidal effect of 90% or more, injury to paddy rice)	5 (Herbicidal effect of 90% or more, injury to paddy rice)	5 (Herbicidal effect of 90% or more, injury to paddy rice)	5 (Herbicidal effect of 90% or more, injury to paddy rice)	5 (Herbicidal effect of 90% or more, injury to paddy rice)	5 (Herbicidal effect of 90% or more, injury to paddy rice)	5 (Herbicidal effect of 90% or more, injury to paddy rice)	3 (Herbicidal effect of 50% or more to less than 70%, injury to paddy rice)	4 (Herbicidal effect of 70% or more to less than 90%, injury to paddy rice)	4 (Herbicidal effect of 70% or more to less than 90%, injury to paddy rice)	5 (Herbicidal effect of 90% or more, injury to paddy rice)	5 (Herbicidal effect of 90% or more, injury to paddy rice)	5 (Herbicidal effect of 90% or more, injury to paddy rice)	5 (Herbicidal effect of 90% or more, injury to paddy rice)	5 (Herbicidal effect of 90% or more, injury to paddy rice)	5 (Herbicidal effect of 90% or more, injury to paddy rice)	5 (Herbicidal effect of 90% or more, injury to paddy rice)	–
